Patent US11452309B2, “Formula of preparations for oral and/or enteral feeding of children” (priority 2017, dated 2022)
In brackets after ≈: the same amount, converted by molar mass. Where a name gives a salt, the structure may show the parent alone. Read-outs that look alike come from different tables or passages of the source.

Columns and labels:
[1] = cited from earlier work
[2] = Solubility of kynurenic acid and its sodium salt; assay type: physicochemical; conditions: water, converted from 100 mM, read-out: solubility in water, corresponding value

Row | solubility [2] | Structure (SMILES) | solubility in 1.0 M NaOH ([1]; alkaline conditions, 1.0 M NaOH) | solubility in water [1] | solubility in water ([1]; sodium salt)
1 | – | O=C(O)c1cc(=O)c2ccccc2[nH]1 [kynurenic acid] | 50 mg/mL (≈ 264 mM) | 0.95 mg/mL | –
2 | 21 mg/mL | O=C(O)c1cc(=O)c2ccccc2[nH]1 [sodium salt] | – | – | 100 mM
